Reference: article PMC11881437 (Molecular Medicine, 2025)

Legend:
VEGFA = assay: ELISA of VEGFA secreted into conditioned medium of CES; type: cell-based, human
Experimental: HCT116 CRC cells were grown in ultra-low attachment plate in 3dGROTM Spheroid Medium (Sigma-Aldrich, USA) for 7 days. Spheroids enriched with CSCs were considered as CSC enriched spheres (CESs) or commonly referred as tumorospheres. After 7 days, tumorospheres were subjected to different treatments for 24 h, as per experimental protocol. Media of tumorospheres of all the treatment groups were collected, centrifuged to remove the cell debris and suspended spheres, supernatants were collected and vacuum concentrated. These supernatants were referred as conditioned medium (CM) and were stored at - 20 °C until use. Concentration of the secreted VEGFA was measured using the ELISA kit according to the manufacturer's instruction ([…] BioSystems, India) in CM of CESs as well as in the media of transfected and non-transfected HCT116.

HIF1α, VEGFA = assay: Western blot and immunocytochemistry in HIF1α transfected HCT116 cells; type: cell-based, human
Experimental: HCT116 cells were transiently transfected with HA-HIF1α-pcDNA3 plasmid (Addgene, USA, Plasmid #18949) by using lipofectamineTM 2000 (Thermo Fisher Scientific, USA) according to the manufacturer’s instructions. After 24 h of transfection, those cells were subjected to various experiments.

[1] = Toxicity of Orientin alone in mice, 28 days; type: in vivo, BALB/c mice
Experimental: To determine the toxicity of only Orientin treatment in various doses, the mice were divided into five groups. Each group contained six animals (n = 6). Each animal of the vehicle control group (VC) was left untreated, while, mice of other four groups were administered Orientin intravenously with 1 mg/kg b.w, 3 mg/kg b.w, 5 mg/kg b.w and 10 mg/kg b.w dosage respectively for 28 days. […] All the treatments were continued for 10 days. On day 11 all the mice were sacrificed and different parameters were studied.
Glutathione-S-transferase (GST), superoxide dismutase (SOD), Catalase (CAT), Glutathione peroxidase (GPx) and reduced glutathione (GSH) activity in hepatic tissue were assessed as described previously (Hajra et al. [2018b]). Values of all the parameters were calculated with respect to the amount of total protein present in liver homogenates.
Various organs and solid tumors collected after sacrificing the mice were embedded into paraffin after 10% neutral buffered formalin fixation. 4 μm sections were prepared and used for histopathological study. Standard Hematoxylin and Eosin (H&E) staining protocol was used and sections were visualized under light microscope (DM 1000, Leica, Germany) (Hajra et al. [2018a]).

HIF1α, VEGFA, NF-ĸB = assay: Western blot of HIF1α, VEGFA and NF-ĸB in CES; type: cell-based, human; settings: 24 h
Experimental: Cells were incubated with Brefeldin A (10 µg/ml) for 4 h before harvesting to determine VEGFA expression. Briefly, cells were lysed with RIPA buffer [50 mmol/L Tris–HCl (pH 7.8), 150 mmol/L NaCl, 1% Triton X-100, 0.1% SDS, 0.5% sodium deoxycholate, and 1 mmol/L EDTA] containing complete protease inhibitor cocktail. Equal amount of protein was electrophoresed on SDS-PAGE and electro transferred onto polyvinylidene difluoride (PVDF) membranes using Bio-Rad mini gel apparatus. The membranes were probed with OCT4 (Thermo Fisher Scientific, USA), SOX2 (AbCam, USA), NANOG (Thermo Fisher Scientific, USA), HIF1α (Thermo Fisher Scientific, USA) and VEGFA (Thermo Fisher Scientific, USA) and NF-ĸB (Santa Cruz Biotechnology, USA) antibodies. β-Actin (Santa Cruz Biotechnology, USA) and α-TUBULIN (Santa Cruz Biotechnology, USA) antibodies were used as loading control. Then, the blots were probed with HRP tagged secondary antibodies. Signals were detected with the ECL system (Promega, USA) and images were captured in iBright™ CL1500 Imaging System.

[2] = parameters: method as in Tan et al. [2013]; Chagas et al. [2020]; Zhang et al. [2007]; settings: ref Tan et al. [2013]; Chagas et al. [2020]; Zhang et al. [2007]; cited from earlier work

| Structure (SMILES) | VEGFA secreted into CM of CES (VEGFA) | HIF1α and VEGFA expression by immunocytochemistry (HIF1α, VEGFA) | hepatic GSH and activity of GST, GPx, SOD and CAT ([1]; 5 mg/kg b.w Orientin i.v., 28 days) | hepatic LPO level ([1]; 5 mg/kg b.w Orientin i.v., 28 days, vs control) | histopathology of liver, heart, lung and kidney ([1]; 5 mg/kg b.w Orientin, vs control) | NF-ĸB expression (HIF1α, VEGFA, NF-ĸB) | excretion [2] | metabolism [2] | tissue distribution [2] |
| --- | --- | --- | --- | --- | --- | --- | --- | --- | --- |
| O=c1[nH]cc(F)c(=O)[nH]1 [5FU, 5-Fluorouracil, reference compound] | stimulated |  |  |  |  |  |  |  |  |
| O=c1cc(-c2ccc(O)c(O)c2)oc2c([C@@H]3O[C@H](CO)[C@@H](O)[C@H](O)[C@H]3O)c(O)cc(O)c12 [Orientin] |  | reduced | increase | significantly decreased | no histopathological changes | downregulated | excreted primarily through urine | hepatic metabolism via CYP450 enzymes | widely distributed in different tissues |
